Data on two compounds can be found in US20230000808A1, “COMPOSITIONS AND METHODS EXCLUDING OR WITH REDUCED GLUTAMINE FOR THE TREATMENT OF HEMOGLOBINOPATHIES AND THALASSEMIAS” (AXCELLA HEALTH INC., priority 2019, published 2023).

Test [1] relates to HLMVECs. The test is described as follows: Mitochondrial stress test, oxygen consumption rate in HLMVEC/TNF-α model (Seahorse). The class given is cell-based, human. The conditions noted are these: for Maximal respiration (OCR) relative to TNF Control, Mean % Change: HLMVEC/TNF-α model, 24 h, Seahorse. On the procedure: Cells were incubated at 37° C., 5% CO2 in a humidified incubator. Cells were passaged at least 1-2 times in the complete growth medium every 2-3 days until ready to plate for cell culture studies. Once ready for experiment, HLMVECs were seeded at a density of 6K cells per well of the 96 well optical microplates (Thermofisher) in the complete growth medium described above and the plated cells were incubated for 24 hours at 37° C. in a humidified incubator with 5% CO2. […] The values are published in the Human Metabolome Database (Wishart D S, et al., Nucleic Acids Res. 2007 January; 35:[…]-6) which is hereby incorporated by reference in its entirety. The medium was also supplemented with growth factors & antibiotics from EGM2-MV kit (Lonza) except the kit-provided FBS which was substituted with dialyzed FBS (Hyclone). […] Using the Agilent Seahorse XF Cell Mito Stress Test Kit (103015-100), parameters of mitochondrial function were studied by directly measuring the oxygen consumption rate (OCR) of HLMVECs on the Seahorse Flux Analyzer (Agilent Technologies) following the manufacturer's recommended protocol and prescribed controls in the kit. The co-treatment cell culture medium after 24 h incubation was removed & aliquoted for adhesion & inflammation biomarker analyses as described above and the HLMVECs in the 96-well plate were further incubated at 37° C. in a non-CO2 incubator for 45 minutes to 1 hour in the pre-warmed Seahorse assay medium supplemented with 10 mM glucose and 1 mM pyruvate but without 2 mM L-glutamine to allow unambiguous evaluation of amino acid combinations in the study. Oxygen consumption was measured at the end of incubation by the Seahorse Flux Analyzer. Four replicates for each treatment were processed for Seahorse studies. Mean percent change in maximal respiration is reported. Statistical analysis was done using one-way ANOVA two sample t-test.

Test [2] deals with IL-6. Nature of the test: LPS-induced IL-6 secretion in primary human monocyte-derived macrophages (ELISA). Particulars: for Donor 1 IL-6 Measurements Mean / Donor 2 IL-6 Measurements Mean / Donor 3 IL-6 Measurements Mean: LPS, baseline subtracted; for effect on LPS-induced IL-6 secretion: Two Way ANOVA Dunnett. Also noted: Donor 1 IL-6 Measurements Mean: unit not given here. Format: cell-based. The procedure: Primary human PMBC derived macrophages were seeded on day 0 at 3.0×10^4 cells per well in 96-well microplates (ThermoFisher) in Dulbecco's Modified Eagle Medium (DMEM) (Gibco) supplemented with penicillin-streptomycin (Hyclone) and 10% heat inactivated fetal bovine serum (HI-FBS) (Atlanta Bio) and incubated overnight at 37° C., 5% CO2. On day 1, cells were washed once with 150 μl per well DPBS (Gibco) and treated with 75 μl of: • a. […] The same medium described above with one amino acid at various concentrations including complete dropout. […] On day 3, the supernatant was collected and immediately frozen in −80° C. freezer. Cells were washed once with 150 μl DPBS and viability was assessed using the WST-8 Cell Proliferation Cytotoxicity Assay (Dojindo). […] Protein levels in supernatant samples were analyzed by ELISA for IL-6 and TNFα using commercially available kits (R&D Systems) according to manufacturer-supplied protocols.
A general note: An ELISA detects its analyte on a solid surface through an enzyme-linked reagent.

Test [3] concerns MCP-1. Nature of the test: MCP-1 in HLMVEC/TNF-α model (ELISA). Format: cell-based, human. The conditions noted are these: for MCP-1 expression relative to TNF Control, Mean % Change: 20×HMDB amino acids, 24 h co-treatment. The procedure: Cells were incubated at 37° C., 5% CO2 in a humidified incubator. Cells were passaged at least 1-2 times in the complete growth medium every 2-3 days until ready to plate for cell culture studies. Once ready for experiment, HLMVECs were seeded at a density of 6K cells per well of the 96 well optical microplates (Thermofisher) in the complete growth medium described above and the plated cells were incubated for 24 hours at 37° C. in a humidified incubator with 5% CO2. […] The values are published in the Human Metabolome Database (Wishart D S, et al., Nucleic Acids Res. 2007 January; 35:[…]-6) which is hereby incorporated by reference in its entirety. The medium was also supplemented with growth factors & antibiotics from EGM2-MV kit (Lonza) except the kit-provided FBS which was substituted with dialyzed FBS (Hyclone). […] Human MCP-1 was measured by ELISA (Human […] DuoSet ELISA, R&D Systems) at 1/70 dilution in 1× Reagent Diluent (Reagent Ancillary Kit 2, R&D Systems). Samples were run in triplicates. […] Samples were run in triplicates. Mean percent change in cytokine levels relative to vehicle are reported herein. Statistical analysis was done using two sample t-test.

The test system of test [4] is sickle cell disease patient blood. Nature of the test: ROS (DCF fluorescence) in sickle cell disease patient whole blood. The class given is cell-based, human. Particulars: both treated with H2O2 and untreated, in DPBS. On the procedure: Whole blood samples were appropriately diluted in Ca^2+- and Mg^2+-free Dulbecco's phosphate buffered saline (DPBS, Life Technologies) and the concentration of erythrocytes (RBC/mL) was measured on a Cellometer K2 Fluorescent Viability Cell Counter according to the manufacturer's RBC/AOPI protocol (Nexcelom Biosciences).
Cells were then diluted to 1×10^6 RBC/mL into either prewarmed 37° C. […] 2′-7′-dichlorofluorescin diacetate (DCF, Millipore Sigma), 20 mM in dimethyl sulfoxide (DMSO, Fisher) were added to a working concentration of 100 μM. Cells were incubated with dye for 15 minutes at 37° C., 5% CO2 in a tissue culture incubator, washed once, and resuspended in the 0.9 volumes of the same prewarmed 37° C. buffer with 5 minute spins at 500×g, accel/decal=5 in a swing arm centrifuge (Beckman Coulter). […] Where possible due to solubility constrains, pH-7.4-adjusted stock solutions of amino acids were used. Wells were mixed by pipetting and plates incubated at 37° C., 5% CO2 in a tissue culture incubator for 30 minutes. Optionally, 40 mM H2O2 (Millipore Sigma) freshly prepared in the same buffer was added to bring the concentration to 2 mM, wells mixed by pipetting, and plates were incubated an additional 30, 60, 120, or 240 minutes before fluorescence measurement of ROS signal on a Synergy H4 (BioTek) microplate reader with excitation=488 nm and emission=530 nm, and gain either set to autogain, 75, or 100.

Consider `NC(=O)CC[C@H](N)C(=O)O` [Glutamine, L-glutamine], for which the “Maximal respiration (OCR) relative to TNF Control, Mean % Change” value in test [1] (TNF Conc 0.5 ng/mL) is −47.7527%; in test [1] (TNF Conc 25 ng/mL) it was −27.9927%. Also, the “oxygen consumption” value in test [1] (either TNF-α concentration) was “did not support oxygen consumption”; in test [1] (higher TNF-α concentration of 25 ng/mL), “appeared to get worse”. Also, the “Donor 1 IL-6 Measurements Mean” value in test [2] (Donor 1, Conc. 749 μM (baseline)) is 0; in test [2] (Donor 1, Conc. 3747 μM) it was 291.5443; in test [2] (Donor 1, Conc. 11242 μM), 397.1745; in test [2] (Donor 1, Conc. 22484 μM), 440.1437. The “effect on LPS-induced IL-6 secretion” value in test [2] (Donor 1) is listed as “increased”; in test [2] (Donor 2) it was “increased”; in test [2] (Donor 3), “significantly increased”. The “Donor 2 IL-6 Measurements Mean” value in test [2] (Donor 2, Conc. 749 μM (baseline)) was 2.37E−15; in test [2] (Donor 2, Conc. 3747 μM) it was 22.52; in test [2] (Donor 2, Conc. 11242 μM), 63.31; in test [2] (Donor 2, Conc. 22484 μM) it was 34.39. Moreover, the “Donor 3 IL-6 Measurements Mean” value in test [2] (Donor 3, Conc. 749 μM (baseline)) is recorded as 3.79E−14; in test [2] (Donor 3, Conc. 3747 μM), 25.35; in test [2] (Donor 3, Conc. 11242 μM), 98.4903; in test [2] (Donor 3, Conc. 22484 μM) it was 108.5158. Further, the entries for the “MCP-1 expression relative to TNF Control, Mean % Change” value in test [3] (TNF Conc 0.5 ng/mL) and in test [3] (TNF Conc 25 ng/mL) were −11.673% and −12.1569%, respectively. In addition, the “MCP-1 level reduction relative to the controls” value in test [3] (both TNF-α treatment groups) is reported as around 12%.

With `CC(=O)N[C@@H](CS)C(=O)O` [N-Acetyl Cysteine, N-acetylcysteine], the “ROS measured in whole blood” value in test [4] is listed as “reduced”. The “Donor 1 IL-6 Measurements Mean” value is given as 0 in test [2] (Donor 1, Conc. 0 X (baseline)); 308.1772 in test [2] (Donor 1, Conc. 5 X); −121.142 in test [2] (Donor 1, Conc. 10 X); −553.802 in test [2] (Donor 1, Conc. 20 X); −914.194 in test [2] (Donor 1, Conc. 40 X). Besides, the “effect on LPS-induced IL-6 secretion” value in test [2] (Donor 1), in test [2] (Donor 2) and in test [2] (Donor 3) was “significantly reduced” in each case. The “Donor 2 IL-6 Measurements Mean” value in test [2] (Donor 2, Conc. 0 X (baseline)) is −2.4E−15; in test [2] (Donor 2, Conc. 5 X), −0.7946; in test [2] (Donor 2, Conc. 10 X), −9.751; in test [2] (Donor 2, Conc. 20 X) it was −24.9999; in test [2] (Donor 2, Conc. 40 X), −33.7585. Moreover, the “Donor 3 IL-6 Measurements Mean” value in test [2] (Donor 3, Conc. 0 X (baseline)) is given as −9.5E−15; in test [2] (Donor 3, Conc. 5 X), −70.3269; in test [2] (Donor 3, Conc. 10 X) it was −103.586; in test [2] (Donor 3, Conc. 20 X) it was −122.656; in test [2] (Donor 3, Conc. 40 X) it was −140.851.
